pIC50: −log10 of the molar value.

One may read the pIC50 as −log10 of the IC50, conventionally taken in molar units.

The test concerns the target T1, biotinylated human IL-17 (binding to IL17R/Fc) (Homo sapiens, UniProt Q16552).
T1 construct: purchased R&D Systems 317-ILB (IL-17, biotinylated); 177-IR (IL17R/Fc)
T1 sequence (Q16552 20-155 limits assumed): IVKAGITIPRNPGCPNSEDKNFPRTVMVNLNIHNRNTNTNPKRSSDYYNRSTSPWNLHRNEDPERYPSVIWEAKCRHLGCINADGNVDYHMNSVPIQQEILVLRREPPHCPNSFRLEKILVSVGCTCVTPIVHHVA
The test is described as follows: IL-17 competition ELISA II (captured IL17R/Fc, biotinylated IL-17). How it is done:
In this version, a high binding 96-well plate (Costar #9018) was coated with 20 nM of goat anti-human IgG (KPL 01-10-02) in PBS, 100 μL/well, for 30 min at 37° C. followed by 5 min at 4° C. The plate was then washed in PBST (PBS/0.05% Tween-20) on a plate washer, (BioTek ELx450) then blocked with protein-free blocking buffer (Thermo Scientific #37573) in 250 μL/well for 30 min on a shaker at room temperature, and then washed again. IL17R/Fc (R&D Systems #177-IR; 10 nM in PBST, 100 μL/well) was then added to all wells. The plate was then incubated for 30 minutes at room temperature on the shaker.
While the receptor capture step was underway, compound dilutions were prepared in PBST to a concentration of 1 μM in 1.5 mL tubes. After the receptor capture step, the plate was washed and 50 μL PBST was added to the wells in row B down to row H. Then, 62.5 μL of the 1 μM compound dilutions were added to the wells of row A. From row A, 12.5 μL of the compound solution was removed and added to row B with mixing and this process of 5-fold dilutions was continued, by row, to row G. One of the wells in row A received only PBST (62.5 μL) and this dilution series served as the no competitor control. Then, going up from row G to row A, 50 μL of b-IL-17 (biotinylated human IL-17, R&D Systems #317-ILB; 20 nM) was added to all wells. Row H received 50 μL of PBST and served as the blank row, i.e., no compound and no b-IL-17. The plate was then incubated for 30 minutes at room temperature on the shaker.
After the wash, 100 μL Streptavidin-Horseradish Peroxidase (SA-HRP) (KPL #14-30-00) at 25 ng/mL in PBST was added to each well in the plate and the plate incubated for 30 minutes at room temperature followed by wash and 100 μL SureBlue™ TMB (KPL #52-00-03). After sufficient color development (approx 3-6 minutes), the reaction was fixed by the addition of 100 μL/well 0.5 N HCl and absorbance was measured at 450 nm on a BioTek Synergy 2 plate reader. The absorbances of ‘no competitor’ control and blank control should not exceed 1.5 A.U. and 0.06 A.U., respectively.
Data was processed using BioAssay Enterprise v10.1.4 (CambridgeSoft) software. Linear OD λ450 were plotted against log concentration (x) and fitted to a 4-parameter logistic equation. IC50 was calculated using positive ‘no competitor’ control data as an upper limit and blank control as a lower limit in each assay.
On the technique in general: An ELISA detects its analyte on a solid surface through an enzyme-linked reagent.
In the case of `O=C1CNC(=O)[C@@H](Cc2ccc(NC(=O)[C@H](Cc3ccccc3Cl)NCc3ccccc3)cc2)NC(=O)CC2(CCCC2)CC(=O)NCCCCCN1` [Compound 503], the pIC50 was 5.00 to 6.00.

For the molecule `CN1C(=O)CC2(CCCC2)CC(=O)NCCOCCOCCNC(=O)[C@H]1Cc1ccc(NC(=O)[C@H](Cc2ccccc2Cl)NC(=O)C2(c3ccc(F)cc3)CC2)cc1` [Compound 504], the pIC50 is 6.00 to 7.00.

On to `CN1C(=O)CC2(CCCC2)CC(=O)NCCCCCCCCNC(=O)[C@H]1Cc1ccc(NC(=O)[C@H](Cc2ccccc2Cl)NC(=O)C2(c3ccc(F)cc3)CC2)cc1` [Compound 505], for which the pIC50 is 5.00 to 6.00. As to `O=C1CC2(CCCC2)CC(=O)N[C@H](Cc2ccc(NC(=O)[C@H](Cc3ccccc3C(F)(F)F)NC(=O)C3(c4ccc(F)cc4)CC3)cc2)C(=O)NCCOCCOCCN1` [Compound 508], the pIC50 was 6.00 to 7.00.

In the case of `Cc1ccc(C[C@H](NC(=O)C2(c3ccc(F)cc3)CC2)C(=O)Nc2ccc(C[C@H]3NC(=O)CC4(CCCC4)CC(=O)N(C)CCCCCNC(=O)[C@@H](C)NC3=O)cc2)c(C)c1` [Compound 509], the negative-log IC50 (pIC50) was 6.00 to 7.00. For `Cc1ccc(C[C@H](NC(=O)C2(c3ccc(F)cc3)CC2)C(=O)Nc2ccc(C[C@H]3NC(=O)CC4(CCCC4)CC(=O)NCCOCCOCCNC3=O)cc2)c(C)c1` [Compound 510], the pIC50 was 6.00 to 7.00. For `CN1C(=O)CC2(CCCC2)CC(=O)N[C@H](C(=O)O)CCCCNC(=O)[C@@H](C(C)(C)C)NC(=O)[C@H]1Cc1ccc(NC(=O)[C@H](Cc2ccccc2Cl)NC(=O)C2(c3ccc(F)cc3)CC2)cc1` [Compound 514] the value was 6.00 to 7.00; for `C[C@H]1NC(=O)[C@@H](Cc2ccc(NC(=O)[C@H](Cc3ccccc3Cl)NC(=O)Cc3ccc(F)cc3)cc2)N(C)C(=O)CC2(CCCC2)CC(=O)NCCCCCN(C)C1=O` [Compound 518], over 7.00. For `O=C1CNC(=O)[C@H](Cc2ccc(NC(=O)[C@H](Cc3ccccc3Cl)NC(=O)Cc3ccccc3)cc2)NC(=O)CC2(CCCC2)CC(=O)NCCCCCN1` [Compound 519] the value was over 7.00; for `C[C@H]1NC(=O)[C@@H](Cc2ccc(NC(=O)[C@H](Cc3ccccc3Cl)NC(=O)Cc3ccc(CO)cc3)cc2)NC(=O)CC2(CCCC2)CC(=O)NCc2cccc(c2)CNC1=O` [Compound 520], over 7.00; for `O=C1CC2(CCCC2)CC(=O)N[C@H](Cc2ccc(NC(=O)[C@H](Cc3ccccc3Cl)NC(=O)c3ccc(F)cc3)cc2)C(=O)NCCOCCOCCN1` [Compound 521], over 7.00.

For the molecule `CN1CCCCCN(C)C(=O)[C@@H](Cc2ccccn2)NC(=O)[C@@H](Cc2ccc(NC(=O)[C@H](Cc3ccccc3Cl)NC(=O)Cc3ccc(F)cc3)cc2)NC(=O)CC2(CCCC2)CC1=O` [Compound 524], the pIC50 is over 7.00. The same measure for `C[C@H]1NC(=O)[C@@H](Cc2ccc(NC(=O)[C@H](Cc3ccccc3Cl)NC(=O)c3ccc(F)cc3)cc2)NC(=O)CC2(CCCC2)CC(=O)N(C)CCCCCN(C)C1=O` [Compound 525]: over 7.00. For the molecule `O=C1CNC(=O)[C@@H](Cc2ccc(NC(=O)[C@@H](Cc3ccccc3Cl)NC(=O)Cc3ccccc3)cc2)NC(=O)CC2(CCCC2)CC(=O)NCCCCCN1` [Compound 526], the pIC50 is 6.00 to 7.00. The same measure for `NC(=O)CC[C@H]1NC(=O)[C@@H](Cc2ccc(NC(=O)[C@H](Cc3ccccc3Cl)NC(=O)C3(c4ccc(F)cc4)CC3)cc2)NC(=O)CC2(CCCC2)CC(=O)N[C@H](C(=O)O)CCCCNC1=O` [Compound 527]: over 7.00; for `O=C1CC2(CCCC2)CC(=O)N[C@H](Cc2ccc(NC(=O)[C@H](Cc3ccc(F)cc3Cl)NC(=O)C(F)(F)c3ccccc3)cc2)C(=O)NCCOCCOCCN1` [Compound 530]: over 7.00; for `O=C1CC2(CCCC2)CC(=O)N[C@H](Cc2ccc(NC(=O)[C@H](Cc3ccccc3Cl)NC(=O)C(F)(F)c3ccccc3)cc2)C(=O)NCCN2CCN(CCN1)CC2` [Compound 531]: 6.00 to 7.00. The same measure for `O=C1CC2(CCCC2)CC(=O)N[C@H](Cc2ccc(NC(=O)[C@H](Cc3ccccc3Cl)NC(=O)Cc3ccc(F)cc3)cc2)C(=O)NCCN2CCN(CCN1)CC2` [Compound 532]: 6.00 to 7.00; for `C[C@H]1NC(=O)[C@@H](Cc2ccc(NC(=O)[C@H](Cc3ccccc3Cl)NC(=O)C(F)(F)c3ccccc3)cc2)NC(=O)CC2(CCCC2)CC(=O)NCCN2CCN(CC2)C1=O` [Compound 533]: 6.00 to 7.00. The same measure for `C[C@H]1NC(=O)[C@@H](Cc2ccc(NC(=O)[C@H](Cc3ccccc3Cl)NC(=O)Cc3ccc(F)cc3)cc2)NC(=O)CC2(CCCC2)CC(=O)NCCN2CCN(CC2)C1=O` [Compound 534]: over 7.00; for `O=C1CC2(CCCC2)CC(=O)N[C@H](Cc2ccc(NC(=O)[C@H](Cc3ccccc3Cl)NC(=O)c3ccccc3O)cc2)C(=O)NCCOCCOCCN1` [Compound 537]: over 7.00; for `O=C1CC2(CCCC2)CC(=O)N[C@H](Cc2ccc(NC(=O)[C@H](Cc3ccccc3Cl)NC(=O)c3ccc(F)cc3O)cc2)C(=O)NCCOCCOCCN1` [Compound 538]: 6.00 to 7.00. In the case of `C[C@H]1NC(=O)[C@@H](Cc2ccc(NC(=O)[C@H](Cc3ccccc3Cl)NC(=O)Cc3ccc(F)cc3)cc2)NC(=O)CC2(CCCC2)CC(=O)N2CCN(CCNC1=O)CC2` [Compound 541], the pIC50 was over 7.00. The same measure for `C[C@H]1NC(=O)[C@@H](Cc2ccc(NC(=O)[C@H](Cc3ccccc3Cl)NC(=O)C(F)(F)c3ccccc3)cc2)NC(=O)CC2(CCCC2)CC(=O)N2CCN(CCNC1=O)CC2` [Compound 542]: over 7.00; for `O=C1CC2(CCCC2)CC(=O)N[C@H](Cc2ccc(NC(=O)[C@H](Cc3ccccc3Cl)NC(=O)[C@@H](O)c3ccccc3)cc2)C(=O)NCCOCCOCCN1` [Compound 544]: over 7.00. The same measure for `O=C1CC2(CCCC2)CC(=O)N[C@H](Cc2ccc(NC(=O)[C@H](Cc3ccccc3Cl)NC(=O)[C@H](O)c3ccccc3)cc2)C(=O)NCCOCCOCCN1` [Compound 545]: over 7.00; for `O=C1CC2(CCCC2)CC(=O)N[C@H](Cc2ccc(NC(=O)[C@H](Cc3ccccc3Cl)NC(=O)[C@@H](O)c3ccccc3)cc2)C(=O)NCCCCCN1` [Compound 546]: 6.00 to 7.00; for `O=C1CC2(CCCC2)CC(=O)N[C@H](Cc2ccc(NC(=O)[C@H](Cc3ccccc3Cl)NC(=O)[C@H](O)c3ccccc3)cc2)C(=O)NCCCCCN1` [Compound 547]: 6.00 to 7.00. The same measure for `O=C1CC2(CCCC2)CC(=O)N[C@H](Cc2ccc(NC(=O)[C@H](Cc3ccccc3Cl)NC(=O)C(=O)c3ccccc3)cc2)C(=O)NCCOCCOCCN1` [Compound 548]: over 7.00; for `C[C@H]1NC(=O)[C@@H](Cc2ccc(NC(=O)[C@H](Cc3ccccc3Cl)NC(=O)Cc3ccc(F)cc3)cc2)NC(=O)CC2(CC2)CC(=O)NCCCCCNC1=O` [Compound 554]: over 7.00.

Turning to `C[C@H]1NC(=O)[C@@H](Cc2ccc(NC(=O)[C@H](Cc3ccccc3Cl)NC(=O)Cc3ccc(F)cc3)cc2)NC(=O)CN(Cc2ccccc2)CC(=O)NCCCCCNC1=O` [Compound 557], the pIC50 is 6.00 to 7.00. The same measure for `C[C@H]1NC(=O)[C@@H](Cc2ccc(NC(=O)[C@H](Cc3ccccc3Cl)NC(=O)Cc3ccc(F)cc3)cc2)NC(=O)CN(C)CC(=O)NCCCCCNC1=O` [Compound 558]: over 7.00; for `O=C1CC2(CCCC2)CC(=O)N[C@H](Cc2ccc(NC(=O)[C@H](Cc3ccccc3Cl)NC(=O)C(F)(F)c3ccc(F)cc3)cc2)C(=O)NCCOCCOCCN1` [Compound 559]: over 7.00; for `C[C@H]1NC(=O)[C@@H](Cc2ccc(NC(=O)[C@H](Cc3ccccc3Cl)NC(=O)C3(c4ccc(F)cc4)CC3)cc2)NC(=O)CC2(CCCC2)CC(=O)N(C)CCN(C)CCN(C)C1=O` [Compound 563]: 6.00 to 7.00. The same measure for `C[C@H]1NC(=O)[C@@H](Cc2ccc(NC(=O)[C@@H](Cc3ccccc3Cl)NC(=O)Cc3ccc(F)cc3)cc2)NC(=O)[C@@H]2CC[C@@H](C2)C(=O)NCCCCCNC1=O` [Compound 564]: 6.00 to 7.00; for `CN1CCOCCOCCNC(=O)[C@@H](Cc2ccc(NC(=O)[C@H](Cc3ccccc3Cl)NC(=O)C(F)(F)c3ccccc3)cc2)NC(=O)CC2(CCCC2)CC1=O` [Compound 565]: over 7.00. For `COC(=O)N[C@@H](Cc1ccccc1Cl)C(=O)Nc1ccc(C[C@H]2NC(=O)CC3(CCCC3)CC(=O)N(C)CCOCCOCCNC2=O)cc1` [Compound 568] the value was over 7.00.

For the origin of these results see US9284283B2, “Macrocyclic compounds for modulating IL-17” (ENSEMBLE THERAPEUTICS CORPORATION, priority 2012, dated 2016).
